The nature of this series: gradient 5% acetonitrile 3 min, to 50% in 2 min, to 85% in 15 min, held 3 min, 100 µL/min. The conditions noted are these: column: Zorbax Extend-C18 2.1 x 50 mm; eluents: water / acetonitrile, 0.1% formic acid. The gist of the method:
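Pure standards were analyzed in mixtures of ~100 molecules using HPLC coupled to a quadrupole time-of-flight mass spectrometer, in both positive and negative ionization mode. Separation used a Zorbax Extend-C18 column (2.1 × 50 mm, 1.8 μm) at 100 μL/min, with water and acetonitrile each containing 0.1% formic acid. Dead and dwell volumes were 40 μL and 900 μL, and data were collected over 3 months. Retention time was read from computationally picked adduct peaks, each inspected manually.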
On to `OCC1CN(C2CCC2)CC12CCN(Cc1ccccc1F)CC2` (centres undefined), for which the RP-LC retention time is 591 s.

`CCc1ccc2[nH]c3c(c(=O)c2c1)CN(CC(=O)NCc1ccc(Cl)cc1)CC3` displayed an RP-LC retention time of 656 s.

As for `Cc1cc(OCC(=O)Nc2ccccc2Cl)nc(N2CCN(c3ccccc3)CC2)n1`, the RP-LC retention time was determined as 993 s.

`Cc1cc(C)cc(NC(=O)Cn2nc3n(c2=O)CCCCC3)c1` yielded an RP-LC retention time of 703 s.

`COCCn1ccc2nc(C)c(C(=O)N3CCN(c4ccccn4)CC3)cc2c1=O` registered an RP-LC retention time of 554 s.

`CC(C)N1C(=O)C(C)(C(=O)Nc2cccc(Cl)c2)Oc2cccnc21` (centres undefined) returned an RP-LC retention time of 1070 s.

Molecule `COc1ccc(-c2nc(C)c3c(n2)N(Cc2ccco2)C(=O)CC3)cc1` displayed an RP-LC retention time of 975 s.

In the case of `COc1ccc(C(=O)N2CCN(c3cc(C)n4cnnc4n3)CC2)cn1`, the RP-LC retention time came out at 571 s.

For the molecule `N#Cc1cccc(S(=O)(=O)N2CCc3nc(-c4ccc(F)cc4)ncc3C2)c1`, the RP-LC retention time was 1030 s.

`O=C(N[C@@H]1CN(Cc2ccc3c(c2)CCO3)C[C@H]1CO)C1CC1` gave an RP-LC retention time of 632 s.

As for `CCc1cccc(NC(=O)Cn2nc(N3CCCC(C)C3)c3ccccc3c2=O)c1` (centres undefined), the RP-LC retention time came to 1240 s.

For `O=C1NC(C(=O)N2CCOCC2)Cn2cccc21` (centres undefined), the RP-LC retention time turned out to be 568 s.

`COC(=O)CCNC(=O)C1c2ccccc2C(=O)N(Cc2ccco2)C12CCCCC2` (centres undefined) gave an RP-LC retention time of 799 s.

For `COc1ccc(C2Cn3cnc(C(=O)N4CCC(C(=O)NCCC5=CCCCC5)CC4)c3CO2)cc1` (centres undefined), the RP-LC retention time turned out to be 831 s.

`Cn1cc(CCN2CCN(S(=O)(=O)c3cccs3)CC2)c2cccnc21` returned an RP-LC retention time of 604 s.

On to `O=C(NCc1ccc(Br)cc1)C1CCCN(c2cnc3nccnc3c2)C1` (centres undefined), for which the RP-LC retention time amounted to 755 s.

`Cc1nc(-c2cn(C)c3ncccc23)sc1C(=O)N1CCN(c2ccccc2)CC1` displayed an RP-LC retention time of 932 s.

Regarding `CCN(CC)c1ncc2c(n1)CCC(C(=O)NCc1nc3ccccc3n1C)C2` (centres undefined), the RP-LC retention time turned out to be 537 s.

`C#CCC(Cc1cnc2nc(N)nc(N)c2n1)c1ccc(C(=O)N[C@@H](CCC(=O)O)C(=O)O)cc1` (some centres undefined) gave an RP-LC retention time of 619 s.

Consider `O=c1ccc(-c2ccc(Br)cc2)nn1Cc1nc(-c2cccs2)no1`, for which the RP-LC retention time stood at 1020 s.

`CCOC(=O)c1cnc2c(cnn2CC)c1NN=C(C)C` returned an RP-LC retention time of 1010 s.

`O=S(=O)(c1ccccc1)N1CCC2(CC1)NCCN=C2NCc1ccc(F)c(Cl)c1`: the RP-LC retention time was found to be 730 s.

With `O=C(Nc1ccc(F)cc1F)C1CC(=O)N(CCc2c[nH]c3ccc(F)cc23)C1` (centres undefined), the RP-LC retention time is 784 s.

Take `CCCCCn1c(=O)c2ccccc2n(Cc2nc(-c3ccc(OCC)c(OC)c3)no2)c1=O`: the RP-LC retention time was determined as 1230 s.

The molecule `COc1cc(OC)cc(C(=O)Nc2nc(-c3ccc4c(c3)NC(=O)C(C)O4)c(C)s2)c1` (centres undefined) yielded an RP-LC retention time of 962 s.

Take `Cc1cccc(NC(=O)Cn2c(=O)n(-c3cccc(C)c3)c(=O)c3c2cc(C)n3C)c1`: the RP-LC retention time came to 888 s.

`O=C(Cn1cc(-c2ccccc2)c2ncnc(N3CCOCC3)c21)N1CCN(c2ccccc2)CC1` displayed an RP-LC retention time of 717 s.

`Cc1ccc2nc(Cl)c3cc(C(=O)N4CCN(c5ccccn5)CC4)sc3c2c1` yielded an RP-LC retention time of 719 s.

In turn, `CNC(=O)c1cc(N2CCCC2)nc2ccc(F)cc12` showed an RP-LC retention time of 591 s.

The molecule `Cc1cc(C)cc(S(=O)(=O)N2CCc3c(c(-c4nnc(-c5ccccc5)o4)nn3C)C2)c1` returned an RP-LC retention time of 1020 s.

Turning to `CCC(=O)N1CCC(Cc2noc(C3CC3)n2)C1` (centres undefined), the RP-LC retention time amounted to 671 s.

Molecule `CCOc1ccc(-c2[nH]nc3nc(-c4cccc(OC)c4)cc(C(=O)O)c23)cc1` yielded an RP-LC retention time of 821 s.

As to `Cc1cc(C)cc(NC(=O)C2CCCN(S(=O)(=O)c3c[nH]c(C(=O)N4CCCC4)c3)C2)c1` (centres undefined), the RP-LC retention time was determined as 874 s.

`Cc1ccc(NC(=O)CN2C(=O)C3CCCCN3c3ccc(S(=O)(=O)N(C)C)cc32)cc1` (centres undefined) had an RP-LC retention time of 943 s.

The molecule `Cc1ccc(Nc2c(-c3ccc(N4CCOCC4)cc3)nc3c(C)cccn23)cc1` showed an RP-LC retention time of 739 s.

Molecule `O=C(CN1C(=O)CCC1=O)Nc1cccc(NC(=O)CN2C(=O)CCC2=O)c1` yielded an RP-LC retention time of 692 s.

For the molecule `O=S(=O)(c1cccc(Cl)c1)N1CC(F)(F)C[C@H]1CN1CCc2ccccc2C1`, the RP-LC retention time came out at 788 s.

In turn, `O=C(COc1ccccc1F)NCC(O)(c1ccccc1)C(F)(F)F` (centres undefined) came in with an RP-LC retention time of 860 s.

Take `O=C(Nc1cccc(F)c1)C1CCN(C(=O)c2ncn3c2COC(c2ccc(F)cc2)C3)CC1` (centres undefined): the RP-LC retention time amounted to 832 s.

`Cc1nn(CCCC(=O)N2CCOCC2)c(=O)c2nn(-c3ccccc3)c(C)c12` had an RP-LC retention time of 673 s.

For the molecule `O=C(Cn1c(=O)oc2ccccc21)NCc1n[nH]c(=O)c2ccccc12`, the RP-LC retention time stood at 595 s.

Molecule `CCN1CCN(c2nccc(-c3cnc4nc(-c5ccncc5)nn4c3C)n2)CC1` returned an RP-LC retention time of 562 s.

With `Cc1ccc(NC(=O)N2CCC3(CC2)N=C(c2ccccc2)C(=O)N3)cc1C`, the RP-LC retention time came to 824 s.

On to `O=C(CSc1cc(-c2ccc(F)cc2)ncn1)NCc1ccc2c(c1)OCO2`, for which the RP-LC retention time turned out to be 825 s.

Molecule `COCCN1C(=O)CCc2cc(NC(=O)Cc3ccccc3C)ccc21` registered an RP-LC retention time of 766 s.

Regarding `CCSc1nnc(NC(=O)CSC2=NN3CCCC(=O)N=C3S2)s1`, the RP-LC retention time was 683 s.

`Cc1nc(C(=O)Nc2ccc(F)cc2C)c(C)o1` had an RP-LC retention time of 889 s.

In turn, `Cc1cc(C)n(-c2ccc(C(=O)N3CCN(c4ccc(F)c(Cl)c4)CC3)nn2)n1` came in with an RP-LC retention time of 969 s.

The molecule `Cc1ccc(N2CC(c3nc(-c4cccnc4)no3)CC2=O)cc1Cl` (centres undefined) registered an RP-LC retention time of 862 s.

In turn, `O=C(CCS(=O)(=O)c1ccccc1)Nc1nc(-c2cc(Cl)sc2Cl)cs1` registered an RP-LC retention time of 1060 s.

In the case of `CCOC(=O)c1ccccc1NC(=O)Cn1c(=O)n(CC)c(=O)c2c1cc(C)n2C`, the RP-LC retention time worked out at 978 s.

`Cc1ccc(NC(=O)Cn2ccc3sccc3c2=O)cc1C` had an RP-LC retention time of 740 s.

Molecule `CCOc1ccc(-c2nc(C3CC(=O)N(c4ccc(Cl)cc4)C3)no2)cc1OCC` (centres undefined) returned an RP-LC retention time of 1150 s.

Turning to `CCOC(=O)c1nc(N2CCN(c3ccccn3)CC2)c2ccccc2n1`, the RP-LC retention time was found to be 580 s.

`CN(C)C(=O)c1csc(S(=O)(=O)N2CCC(C(=O)NC3CCCCCCC3)CC2)c1` registered an RP-LC retention time of 835 s.

In the case of `Cc1nn(-c2ccc(F)cc2)c(C)c1S(=O)(=O)N1CCC(C(=O)NC2CC2)CC1`, the RP-LC retention time came to 764 s.

`CCN1CCN(C(=O)Cc2c(C)nc3nc(-c4ccccc4)nn3c2C)CC1` returned an RP-LC retention time of 589 s.

For `CC(C)CCNS(=O)(=O)c1cccc(-c2nc(-c3ccccc3)no2)c1`, the RP-LC retention time was 1230 s.

Take `CCc1ccc(N2C(=O)C3N=NN(Cc4nc(-c5ccccc5Cl)no4)C3C2=O)cc1` (centres undefined): the RP-LC retention time turned out to be 1060 s.

For `O=C(NCc1csc(C2CCCN(C(=O)c3c(F)cccc3F)C2)n1)C1CCC1` (centres undefined), the RP-LC retention time turned out to be 742 s.

As to `COc1cccc(-c2nc3sc(C(=O)N(C)C)c(C)n3c2NC(C)(C)C)c1`, the RP-LC retention time stood at 773 s.

`O=C1C(N2CCCN(S(=O)(=O)c3cc(F)cc(F)c3)CC2)CCN1CC1CC1` (centres undefined) registered an RP-LC retention time of 661 s.

For `CCc1ccc(-c2noc(Cn3c(=O)n(Cc4ccccc4)c(=O)c4sccc43)n2)cc1`, the RP-LC retention time amounted to 1210 s.

`COc1ccc(N2CCN(c3nc4c(c(Nc5ccccc5)n3)C(=O)CCC4)CC2)cc1`: the RP-LC retention time came to 1210 s.

Turning to `CCCC(=O)Nc1sccc1C(N)=O`, the RP-LC retention time amounted to 625 s.

As for `Cc1ccc(-c2cn3c(CC(=O)NC4CCC(C)CC4)csc3n2)cc1C` (centres undefined), the RP-LC retention time is 938 s.

`CN(C)CCNC(=O)C1CCN(c2nccnc2Sc2ccccc2)CC1` registered an RP-LC retention time of 629 s.

Take `O=C(NC1CCCCC1)c1nc(Nc2ccc(F)cc2)c2ccccc2n1`: the RP-LC retention time worked out at 883 s.

With `CC(C)c1nnc(NC(=O)c2cc(Cl)ccc2Cl)s1`, the RP-LC retention time worked out at 828 s.

On to `Cc1cccc2c(=O)n(C3CCN(C(=O)Nc4cccc(C(F)(F)F)c4)CC3)cnc12`, for which the RP-LC retention time came to 952 s.

The molecule `CCOC(=O)c1cn(Cc2ccc(F)cc2)c2nc(C)ccc2c1=O` gave an RP-LC retention time of 854 s.

`c1cc2c(cc1-c1noc(CCC3CCCC3)n1)nnn2CCN1CCOCC1` returned an RP-LC retention time of 780 s.

In the case of `O=C(CCc1nc(CSc2nnc(-c3ccccc3)o2)no1)Nc1ccc(Cl)cc1`, the RP-LC retention time came to 949 s.

On to `CC1CCCN(c2nc(-c3ccc(Cl)cc3)nc3ccccc23)C1` (centres undefined), for which the RP-LC retention time turned out to be 941 s.

`COc1ccc(S(=O)(=O)N2CCCC2)cc1C(=O)Nc1cccc2cnccc12` came in with an RP-LC retention time of 598 s.

For `COc1ccc2c(c1)C1(CCN(S(=O)(=O)c3ccc(C#N)cc3)C1)C(=O)N2` (centres undefined), the RP-LC retention time is 797 s.

The molecule `O=C(O)c1cncc(Br)c1` displayed an RP-LC retention time of 701 s.

Molecule `CCc1ccccc1NC(=O)C1CCN(S(=O)(=O)c2ccc3c(c2)CCCC(=O)N3)CC1` displayed an RP-LC retention time of 757 s.

Take `Cc1cc(Br)ccc1NC(=O)CCn1c(=O)oc2ccccc21`: the RP-LC retention time amounted to 823 s.

(Values after the METLIN SMRT retention time set (Domingo-Almenara et al. 2019).)
